Values after ≈ are worked out from the molar mass of the structure shown.
Assays:
Type in all cases: functional
Nakaseomyces glabratus = assay: Antifungal activity against Candida glabrata assessed as inhibition of fungal growth by CLSI M27-A3 guidelines based method
Candida albicans [1] = assay: Antifungal activity against Candida albicans GIM 2.194 assessed as inhibition of fungal growth by CLSI M27-A3 guidelines based method
Pichia kudriavzevii = assay: Antifungal activity against Candida krusei GIM 2.1 assessed as inhibition of fungal growth by CLSI M27-A3 guidelines based method
Candida albicans [2] = assay: Antifungal activity against Candida albicans SC5314 assessed as inhibition of fungal growth by CLSI M27-A3 guidelines based method
Cryptococcus neoformans = assay: Antifungal activity against Cryptococcus neoformans CGMCC 2.3161 assessed as inhibition of fungal growth by CLSI M27-A3 guidelines based method
Candida tropicalis = assay: Antifungal activity against Candida tropicalis GIM 2.183 assessed as inhibition of fungal growth by CLSI M27-A3 guidelines based method
Candida parapsilosis = assay: Antifungal activity against Candida parapsilosis GIM 2.190 assessed as inhibition of fungal growth by CLSI M27-A3 guidelines based method; details: Lodderomyces parapsilosis
Candida albicans [3] = assay: Antifungal activity against fluconazole-resistant Candida albicans clinical isolate 632 assessed as inhibition of fungal growth by CLSI M27-A3 guidelines based method
Candida albicans [4] = assay: Antifungal activity against fluconazole-resistant Candida albicans clinical isolate 901 assessed as inhibition of fungal growth by CLSI M27-A3 guidelines based method
Aspergillus fumigatus = assay: Antifungal activity against Aspergillus fumigatus cgmcc 3.7795 assessed as inhibition of fungal growth by CLSI M27-A3 guidelines based method
Candida albicans [5] = assay: Antifungal activity against fluconazole-resistant Candida albicans clinical isolate 904 assessed as inhibition of fungal growth by CLSI M27-A3 guidelines based method
Candida albicans [6] = assay: Antifungal activity against fluconazole-resistant Candida albicans CaR assessed as inhibition of fungal growth by CLSI M27-A3 guidelines based method
Candida albicans [7] = assay: Antifungal activity against fluconazole-resistant Candida albicans clinical isolate 103 assessed as inhibition of fungal growth by CLSI M27-A3 guidelines based method
Candida albicans [8] = assay: Antifungal activity against fluconazole-resistant Candida albicans clinical isolate 311 assessed as inhibition of fungal growth by CLSI M27-A3 guidelines based method
Candida albicans [9] = assay: Antifungal activity against fluconazole-resistant Candida albicans clinical isolate 100 assessed as inhibition of fungal growth by CLSI M27-A3 guidelines based method
Candida albicans [10] = assay: Antifungal activity against fluconazole and iodiconazole resistant Candida albicans clinical isolate 17# assessed as inhibition of fungal growth by CLSI M27-A3 guidelines based method

SMILES	MIC80 (Nakaseomyces glabratus) [µg/mL]	MIC80 (Candida albicans [1]) [µg/mL]	MIC80 (Pichia kudriavzevii) [µg/mL]	MIC80 (Candida albicans [2]) [µg/mL]	MIC80 (Cryptococcus neoformans) [µg/mL]	MIC80 (Candida tropicalis) [µg/mL]	MIC80 (Candida parapsilosis) [µg/mL]	MIC80 (Candida albicans [3]) [µg/mL]	MIC80 (Candida albicans [4]) [µg/mL]	MIC80 (Aspergillus fumigatus) [µg/mL]	MIC80 (Candida albicans [5]) [µg/mL]	MIC80 (Candida albicans [6]) [µg/mL]	MIC80 (Candida albicans [7]) [µg/mL]	MIC80 (Candida albicans [8]) [µg/mL]	MIC80 (Candida albicans [9]) [µg/mL]	MIC80 (Candida albicans [10]) [µg/mL]
CN(Cc1ccc(C#Cc2ccccn2)cc1)CC(O)(Cn1cncn1)c1ccc(F)cc1F (configuration not stated)	1.6 (≈ 3.48 µM)	0.25 (≈ 0.544 µM)	0.4 (≈ 0.871 µM)	0.013 (≈ 0.0283 µM)	0.2 (≈ 0.435 µM)	0.013 (≈ 0.0283 µM)	0.05 (≈ 0.109 µM)									
CN(Cc1ccc(C#Cc2ccc(-c3ccccc3)cc2)cc1)CC(O)(Cn1cncn1)c1ccc(F)cc1F (configuration not stated)	0.4 (≈ 0.748 µM)	0.013 (≈ 0.0243 µM)	0.2 (≈ 0.374 µM)	0.05 (≈ 0.0935 µM)	0.05 (≈ 0.0935 µM)	0.05 (≈ 0.0935 µM)	0.05 (≈ 0.0935 µM)									
CC(C)c1ccc(C#Cc2ccc(CN(C)CC(O)(Cn3cncn3)c3ccc(F)cc3F)cc2)cc1 (configuration not stated)	0.1 (≈ 0.2 µM)	0.025 (≈ 0.0499 µM)	0.2 (≈ 0.4 µM)	0.013 (≈ 0.026 µM)	0.025 (≈ 0.0499 µM)	0.013 (≈ 0.026 µM)	0.05 (≈ 0.0999 µM)									
CN(Cc1ccc(C#Cc2ccccc2Cl)cc1)CC(O)(Cn1cncn1)c1ccc(F)cc1F (configuration not stated)	0.8 (≈ 1.62 µM)	0.006 (≈ 0.0122 µM)	0.03 (≈ 0.0609 µM)	0.013 (≈ 0.0264 µM)	0.013 (≈ 0.0264 µM)	0.013 (≈ 0.0264 µM)	0.006 (≈ 0.0122 µM)									
CN(Cc1ccc(C#Cc2cc(F)c(Cl)cc2F)cc1)CC(O)(Cn1cncn1)c1ccc(F)cc1F (configuration not stated)	0.01 (≈ 0.0189 µM)	0.006 (≈ 0.0113 µM)	0.01 (≈ 0.0189 µM)	0.006 (≈ 0.0113 µM)	0.025 (≈ 0.0473 µM)	0.006 (≈ 0.0113 µM)	0.006 (≈ 0.0113 µM)									
CN(Cc1ccc(C#Cc2ccc(Cl)cc2)cc1)CC(O)(Cn1cncn1)c1ccc(F)cc1F (configuration not stated)	0.05 (≈ 0.101 µM)	0.013 (≈ 0.0264 µM)	0.03 (≈ 0.0609 µM)	0.006 (≈ 0.0122 µM)	0.013 (≈ 0.0264 µM)	0.013 (≈ 0.0264 µM)	0.006 (≈ 0.0122 µM)									
C[C@@H](N(C)Cc1ccc(C#Cc2ccc(F)c(F)c2)cc1)[C@](O)(Cn1cncn1)c1ccc(F)cc1F	0.05 (≈ 0.0983 µM)	0.025 (≈ 0.0492 µM)	0.03 (≈ 0.059 µM)	0.013 (≈ 0.0256 µM)	0.05 (≈ 0.0983 µM)	0.006 (≈ 0.0118 µM)	0.006 (≈ 0.0118 µM)	4 (≈ 7.87 µM)	8 (≈ 15.7 µM)	0.1 (≈ 0.197 µM)	16 (≈ 31.5 µM)	0.25 (≈ 0.492 µM)	8 (≈ 15.7 µM)	8 (≈ 15.7 µM)	8 (≈ 15.7 µM)	0.5 (≈ 0.983 µM)
CN(Cc1ccc(C#Cc2ccccc2F)cc1)CC(O)(Cn1cncn1)c1ccc(F)cc1F (configuration not stated)	0.05 (≈ 0.105 µM)	0.013 (≈ 0.0273 µM)	0.01 (≈ 0.021 µM)	0.006 (≈ 0.0126 µM)	0.006 (≈ 0.0126 µM)	0.006 (≈ 0.0126 µM)	0.006 (≈ 0.0126 µM)									
CN(Cc1ccc(C#Cc2cccc(F)c2)cc1)CC(O)(Cn1cncn1)c1ccc(F)cc1F (configuration not stated)	0.05 (≈ 0.105 µM)	0.013 (≈ 0.0273 µM)	0.01 (≈ 0.021 µM)	0.006 (≈ 0.0126 µM)	0.006 (≈ 0.0126 µM)	0.006 (≈ 0.0126 µM)	0.006 (≈ 0.0126 µM)									
C[C@@H](N(C)Cc1ccc(C#Cc2ccc(F)cc2)cc1)[C@](O)(Cn1cncn1)c1ccc(F)cc1F	0.01 (≈ 0.0204 µM)	0.025 (≈ 0.051 µM)	0.03 (≈ 0.0612 µM)	0.025 (≈ 0.051 µM)	0.013 (≈ 0.0265 µM)	0.006 (≈ 0.0122 µM)	0.006 (≈ 0.0122 µM)	4 (≈ 8.15 µM)	4 (≈ 8.15 µM)	0.1 (≈ 0.204 µM)	16 (≈ 32.6 µM)	0.25 (≈ 0.51 µM)	8 (≈ 16.3 µM)	16 (≈ 32.6 µM)	4 (≈ 8.15 µM)	0.25 (≈ 0.51 µM)
Cc1cccc(C#Cc2ccc(CN(C)CC(O)(Cn3cncn3)c3ccc(F)cc3F)cc2)c1 (configuration not stated)	0.4 (≈ 0.846 µM)	0.013 (≈ 0.0275 µM)	0.8 (≈ 1.69 µM)	0.013 (≈ 0.0275 µM)	0.025 (≈ 0.0529 µM)	0.025 (≈ 0.0529 µM)	0.013 (≈ 0.0275 µM)									
CN(Cc1ccc(C#Cc2ccc(Br)cc2)cc1)CC(O)(Cn1cncn1)c1ccc(F)cc1F (configuration not stated)	0.03 (≈ 0.0558 µM)	0.013 (≈ 0.0242 µM)	0.01 (≈ 0.0186 µM)	0.013 (≈ 0.0242 µM)	0.013 (≈ 0.0242 µM)	0.025 (≈ 0.0465 µM)	0.006 (≈ 0.0112 µM)									

From ChEMBL document CHEMBL6092180 (Eur J Med Chem, 2024)
